Among the data in patent US8563542B2 (Cyclacel Limited, priority 2007, dated 2013) are IC50 values, retold here.

One assay has as its target T1, AA (Homo sapiens, UniProt O14965).
T1 sequence (O14965 1-403): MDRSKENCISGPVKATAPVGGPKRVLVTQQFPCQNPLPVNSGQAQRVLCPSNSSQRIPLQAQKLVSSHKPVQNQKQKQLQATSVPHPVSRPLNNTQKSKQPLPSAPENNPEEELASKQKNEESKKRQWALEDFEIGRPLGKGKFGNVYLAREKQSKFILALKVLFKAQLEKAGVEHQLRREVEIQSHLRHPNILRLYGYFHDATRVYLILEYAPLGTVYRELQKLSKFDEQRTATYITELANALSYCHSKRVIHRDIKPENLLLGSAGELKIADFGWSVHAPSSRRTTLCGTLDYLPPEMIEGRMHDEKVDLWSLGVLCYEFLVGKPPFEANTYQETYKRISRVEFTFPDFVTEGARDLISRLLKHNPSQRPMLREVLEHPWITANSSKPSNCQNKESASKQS
Briefly: AA IC50 (Table 1; no method given). It is filed as biochemical. To be noted: Table 2, AurA IC50; class symbols; read-out: AurA IC50.
As for `CN1C(=O)C2(CCCC2)CN(C2CCCC2)c2nc(Nc3ccc4c(c3)CS(=O)(=O)C4)ncc21` [compound 118, (9-Cyclopentyl-2-(2,2-dioxo-2,3-dihydro-1H-2lambda*6*-benzo[c]thiophen-5-ylamino)5-methyl-6-oxo-6,7,8,9-tetrahydro-5H-spiro[pyrimido[4,5-b][1,4]diazepin-3,1′-cyclopentane]], the IC50 (in general, the concentration that inhibits the measured activity by half) is under 1 µM.
Turning to `CCN1C(=O)CCN(c2ccc(OC)cc2)c2nc(Nc3ccc(NC(=O)C4CC4)c(C)c3)ncc21` [compound 330, Cyclopropanecarboxylic acid {4-[5-ethyl-9-(4-methoxy-phenyl)-6-oxo-6,7,8,9-tetrahydro-5H-pyrimido[4,5-b][1,4]diazepin-2-ylamino]-2-methyl-phenyl}-amide], the IC50 was under 10 µM.
For `CN1C(=O)CCN(c2ccccc2F)c2nc(Nc3ccc4c(c3)CS(=O)(=O)C4)ncc21` [compound 73, 2-(2,2-Dioxo-2,3-dihydro-1H-2lambda*6*- benzo[c]thiophen-5-ylamino)-9-(2-fluoro-phenyl)-5-methyl-5,7,8,9-tetrahydro-pyrimido[4,5-b][1,4]diazepin-6-one], the IC50 is under 0.1 µM.
`CCN1C(=O)CCN(c2ccc(C)cc2)c2nc(Nc3ccc4c(c3)CS(=O)(=O)C4)ncc21` [compound 331, 2-(2,2-Dioxo-2,3-dihydro-1H-2lambda*6*- benzo[c]thiophen-5-ylamino)-5-ethyl-9-p-tolyl-5,7,8,9-tetrahydro-pyrimido[4,5-b][1,4]diazepin-6-one]: the half-maximal inhibitory concentration (IC50) is under 0.1 µM.
`CN1C(=O)CCN(c2ccc(N3CCOCC3)cc2)c2nc(Nc3ccc4c(c3)CS(=O)(=O)C4)ncc21` [compound 336, 2-(2,2-Dioxo-2,3-dihydro-1H-2lambda*6*- benzo[c]thiophen-5-ylamino)-5-methyl-9-(4-morpholin-4-yl-phenyl)-5,7,8,9-tetrahydro-pyrimido[4,5-b][1,4]diazepin-6-one]: the half-inhibitory concentration (IC50) was under 0.1 µM.

The target in another assay is PLK1 (Homo sapiens, UniProt P53350). Kind of assay: PLK1 protein kinase assay (CDC25C phosphorylation, [γ-32P]-ATP). It is filed as biochemical. To be noted: Table 2, PLK1 IC50; class symbols; read-out: PLK1 IC50.
Chain of PLK1 (P53350 whole entry): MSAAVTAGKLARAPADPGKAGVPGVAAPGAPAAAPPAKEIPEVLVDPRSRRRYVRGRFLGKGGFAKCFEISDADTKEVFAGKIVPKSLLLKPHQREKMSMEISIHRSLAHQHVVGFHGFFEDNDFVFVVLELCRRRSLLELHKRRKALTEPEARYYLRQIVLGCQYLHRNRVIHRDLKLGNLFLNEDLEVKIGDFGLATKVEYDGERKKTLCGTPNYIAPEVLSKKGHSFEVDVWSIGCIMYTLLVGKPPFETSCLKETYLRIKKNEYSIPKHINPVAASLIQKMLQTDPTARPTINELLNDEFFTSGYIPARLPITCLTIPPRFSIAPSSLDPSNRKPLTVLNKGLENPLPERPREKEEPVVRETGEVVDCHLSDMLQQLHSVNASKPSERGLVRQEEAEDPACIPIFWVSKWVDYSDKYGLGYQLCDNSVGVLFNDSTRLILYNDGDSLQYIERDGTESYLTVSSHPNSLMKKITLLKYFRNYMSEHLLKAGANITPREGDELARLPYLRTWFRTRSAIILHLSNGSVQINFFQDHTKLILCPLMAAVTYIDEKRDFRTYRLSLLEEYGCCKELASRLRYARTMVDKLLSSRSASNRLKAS
As to `COc1cccc(N2CCC(=O)N(C)c3cnc(Nc4ccc(C(=O)NC5CCN(C)CC5)cc4OC)nc32)c1` [compound 48, 3-Methoxy-4-[9-(3-methoxy-phenyl)-5-methyl-6-oxo-6,7,8,9-tetrahydro-5H-pyrimido[4,5-b][1,4]diazepin-2-ylamino]-N-(1-methyl-piperidin-4-yl)-benzamide], the IC50 was under 10 µM.
With `COc1cc(C(=O)NC2CCN(CC(=O)O)CC2)ccc1Nc1ncc2c(n1)N(C1CCCC1)CCC(=O)N2C` [compound 343], the IC50 is under 1 µM.
For the molecule `COc1cc(C(=O)NCCO)ccc1Nc1ncc2c(n1)N(C1CCCC1)CCC(=O)N2C` [compound 166, 4-(9-Cyclopentyl-5-methyl-6-oxo-6,7,8,9-tetrahydro-5H-pyrimido[4,5-b][1,4]diazepin-2-ylamino)-N-(2-hydroxy-ethyl)-3-methoxy-benzamide], the IC50 is under 1 µM.
For the molecule `COc1cc(C(=O)N[C@@H](CO)C(C)C)ccc1Nc1ncc2c(n1)N(C1CCCC1)CCC(=O)N2C` [compound 152, 4-(9-Cyclopentyl-5-methyl-6-oxo-6,7,8,9-tetrahydro-5H-pyrimido[4,5-b][1,4]diazepin-2-ylamino)-N-((R)-1-hydroxymethyl-2-methyl-propyl)-3-methoxy-benzamide], the IC50 was under 1 µM.
For `Cc1cc(C(=O)NC2CCN(C)CC2)ccc1Nc1ncc2c(n1)N(C1CCCC1)CC1(CC1)C(=O)N2C` [compound 301], the IC50 was under 1 µM.
Take `CN1C(=O)C2(CC2)CN(C2CCCC2)c2nc(Nc3ccc(C(=O)O)cc3F)ncc21` [compound 283, 4-(9-Cyclopentyl-5-methyl-6-oxo-6,7,8,9-tetrahydro-5H-spiro[pyrimido[4,5-b][1,4]diazepin-3,1′-cyclopropane]-2-ylamino)-3-fluorobenzoic acid]: the IC50 was under 0.1 µM.
Regarding `COCCNC(=O)c1ccc(OC)c(Nc2ncc3c(n2)N(C2CCCC2)CCC(=O)N3C)c1` [compound 270, 3-(9-Cyclopentyl-5-methyl-6-oxo-6,7,8,9-tetrahydro-5H-pyrimido[4,5-b][1,4]diazepin-2-ylamino)-4-methoxy-N-(2-methoxy-ethyl)-benzamide], the concentration for half-maximal inhibition (IC50) is under 1 µM.
